Data as given in US20230405002A1, “COMBINATIONS OF DIACYLGLYCEROL ACYLTRANSFERASE 2 INHIBITORS AND ACETYL-COA CARBOXYLASE INHIBITOR” (Pfizer Inc., priority 2020, published 2023).

How the values were obtained:
[1] = system: Western diet fed Sprague Dawley rats; experiment: Compound A / Compound D study in Western diet fed rats: fed and fasted plasma triglycerides; assay type: in vivo, rat; conditions: for increase in fasted plasma TG / reduction of fasted plasma TG: relative to vehicle administered Western diet fed rats; for increase in plasma TG in the fed state / reduction of plasma TG in the fed state: relative to vehicle-administered Western diet fed rats
Protocol: A randomized, vehicle-controlled, 8-parallel arm study was conducted in male Sprague-Dawley rats (Charles River (Boston, MA)) to obtain circulating and hepatic TG levels. Standard laboratory conditions were used to house 96 rats (˜200 g); they were double housed and kept under 12:12-hour reverse light-dark schedule (lights off at 8:00 AM). Rats were randomized into chow or Western diet groups and dose groups upon arrival and were given a 14-day lead-in period on either standard rat chow or Western diet prior to the start of the study. Standard Laboratory Rodent chow diet, 5053, was from LabDiet (PMI, St Louis, Missouri). Western Diet, D12079Bi, was from Research Diets (New Brunswick, NJ).
For these studies, vehicle was prepared to make a 0.5% (wt/volume) of methyl cellulose (MC, Sigma Aldrich, 274429) in deionized water.
Fed plasma analytes: Blood for determining fed plasma TG concentrations was collected 2 hours post dose (2 hours into the dark cycle) via lateral tail vein, transferred to BD Microtainer tubes coated with dipotassium ethylenediaminetetraacetic acid (K2EDTA) (PN365974), and centrifuged at 4° C. The resulting plasma samples were then analyzed on a Siemens Chemistry XPT clinical analyzer (Malven, PA) using Siemens triglycerides_2 assay reagents (ref 10335892).
Fasted plasma analytes: Blood for determining fasted plasma TG was collected after a 4 hour fast, 2 hours post-dose (2 hours into the dark cycle) via lateral tail vein, transferred to BD Microtainer tubes coated with K2EDTA (PN365974), and centrifuged at 4° C. The resulting plasma samples were then analyzed on a Siemens Chemistry XPT clinical analyzer (Malven, PA) using Siemens triglycerides 2 assay reagents (ref 10335892).

αSMA and COL1A1 = experiment: CDAHFD rat study: hepatic αSMA and COL1A1 gene expression (qPCR); assay type: in vivo; conditions: Compound A 5 mg/kg, Compound D 30 mg/kg twice daily, 6 weeks
Source text: (§1) Standard laboratory conditions were used to house 60 rats (˜200 g); they were double housed and kept under 12:12-hour reverse light-dark schedule (lights off at 8:00 AM). Rats were fed choline deficient and high fat diet (CDAHFD) beginning 6-weeks prior to initiation of the study. […] Animals (n=12) remaining on normal chow throughout the study and administered twice-daily vehicle were used as a control group. Blood samples were collected prior to starting compound administration and 3- and 6-week post compound administration for the assessment of circulating markers. Shearwave elastography (Aixplorer Ultimate imager, Supersoinc imagine) measurements were made at Week −3, Week 0 (prior to 1st dose), Week 3 and Week 6 to assess inflammation and fibrosis progression over time. Histology was assessed following 6-weeks of drug administration which corresponded to 12 weeks on the CDAHFD. Results are provided as an average of animals per each dosing group.
Following the 12-weeks on CDAHFD, the animals were sacrificed by CO2 asphyxiation. The right lateral, medial and left lateral lobes of the liver were harvested. […] A portion of the pulverized liver sample from each animal was processed and analyzed for gene expression markers of fibrogenesis. Rat taqman probes against αSMA and COL1A1 were all assessed using Actb as housekeeping gene on qPCR.

[2] = system: CDAHFD fed male Wistar-Han rats; experiment: CDAHFD rat study: liver histology (αSMA IHC, Picrosirius red, Iba1 staining); assay type: in vivo; conditions: Compound A 5 mg/kg, Compound D 30 mg/kg twice daily, 6 weeks
Source text: as §1
Following the 12-weeks on CDAHFD, the animals were sacrificed by CO2 asphyxiation. The right lateral, medial and left lateral lobes of the liver were harvested. Sections were taken from the left lateral, right medial and right lateral lobes and fixed in formalin and processed to paraffin blocks per animal. One section of left lateral lobe per animal was cryopreserved in optimal cutting temperature (OCT) compound. The remainder of the liver from each animal was frozen and rapidly pulverized on an aluminum block cooled in liquid N2, ensuring the tissue remained frozen throughout the pulverization. The pulverized tissue was transferred and stored at −80° C. until analysis. A portion of the pulverized liver sample from each animal was processed and analyzed for gene expression markers of fibrogenesis. Rat taqman probes against αSMA and COL1A1 were all assessed using Actb as housekeeping gene on qPCR.
The following endpoints were evaluated by qualitative histologic evaluation by a board certified veterinary pathologist and quantitative histomorphometry: hepatic stellate cell activation and differentiation into myofibroblasts by αSMA immunohistochemistry (IHC); Collagen as a correlate of fibrosis by Picrosirius Red stain. Images were analyzed using Visiopharm software. Visiopharm applications with threshold parameters were applied uniformly to identify tissue sections and to quantify the targets on each IHC (DAB (3,3′-diaminobenzidine) positive) or histochemically stained slides as percent area: stain area of interest/Total tissue ROI−whitespace)×100%. Non-parametric statistics were used to analyze data from this study. Group values were reported as mean+/− the standard error of the mean.

[3] = system: CDAHFD fed male Wistar-Han rats; experiment: CDAHFD rat study: liver stiffness by shearwave elastography; assay type: in vivo; conditions: Compound A 5 mg/kg, Compound D 30 mg/kg twice daily, 6 weeks
Source text: as §1

[4] = high dose (Compound A 10 mg/kg QD)
[5] = low dose (Compound A 1 mg/kg QD)

Row | Compound | increase in fasted plasma TG [1, 4] [fold] | increase in plasma TG in the fed state [1, 4] [fold] | increase in fasted plasma TG [1, 5] [fold] | increase in plasma TG in the fed state [1, 5] [fold] | hepatic αSMA and COL1A1 gene expression (αSMA and COL1A1) | reduction of Iba1 staining [2] | reduction of Picosrius red (PSR) staining [2] [%] | reduction of αSMA staining [2] [%] | liver stiffness (shearwave elastography) [3] | reduction of plasma TG in the fed state ([1]; high dose (Compound A 10 mg/kg QD, Compound D 30 mg/kg BID)) [%] | reduction of fasted plasma TG ([1]; high dose (Compound D 30 mg/kg BID)) [%] | reduction of plasma TG in the fed state ([1]; low dose (Compound A 1 mg/kg QD, Compound D 5 mg/kg BID)) [%] | reduction of fasted plasma TG ([1]; low dose (Compound D 5 mg/kg BID)) [%]
1 | COc1cc(C(=O)N2CCC3(CC2)CC(=O)c2c(cnn2C(C)C)C3)cc(-c2ccc(C(=O)O)cc2)n1 [Compound A, 4-(4-(1-isopropyl-7-oxo-1,4,6,7-tetrahydrospiro[indazole-5,4′-piperidine]-1′-carbonyl)-6-methoxypyridin-2-yl)benzoic acid] | 1.7 | 1.3 | 2.4 | 1.7 | reduced hepatic αSMA and COL1A1 gene expression | 15% | 26 | 41 | reduced liver stiffness | – | – | – | –
2 | CCOc1cccnc1Oc1cncc(-c2ncc(C(=O)N[C@H]3CCOC3)cn2)c1 [Compound D, (S)-2-(5-((3-ethoxypyridin-2-yl)oxy)pyridin-3-yl)-N-(tetrahydrofuran-3-yl)pyrimidine-5-carboxamide] | – | – | – | – | reduced hepatic αSMA and COL1A1 gene expression | did not alter Iba1 staining | 20 | 23 | reduced liver stiffness | 63 | 35 | 55 | 20
